In this assay the test system is B6C3F1 mice, B16 melanoma ip, median survival T/C. Kind of assay: NCI In Vivo Anticancer Drug Screen. Data for tumor model B16 Melanoma (intraperitoneal) in B6C3F1 mice. To be noted: endpoint: median survival time, schedule: Q01DX009 (ip), higher = longer survival. Summed up:
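Values are T/C ratios: the measurement in treated animals divided by that in vehicle-treated controls, using survival or tumor size in mice carrying transplantable tumors.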

Setting [1] is: dose: 50.0 mg/kg/injection, vehicle: Klucel (hydroxypropylcellulose) (HPC).
[2] abbreviates: dose: 100.0 mg/kg/injection, vehicle: Klucel (hydroxypropylcellulose) (HPC).
Where [3] appears, read: dose: 25.0 mg/kg/injection, vehicle: saline.
Where [4] appears, read: dose: 12.5 mg/kg/injection, vehicle: saline with Tween-80.
Setting [5] is: dose: 25.0 mg/kg/injection, vehicle: saline with Tween-80.
[6] abbreviates: dose: 100.0 mg/kg/injection, vehicle: saline with Tween-80.
Setting [7] is: dose: 50.0 mg/kg/injection, vehicle: saline.
Setting [8] is: dose: 100.0 mg/kg/injection, vehicle: saline.
[9] abbreviates: dose: 3.12 mg/kg/injection, vehicle: saline with Tween-80.
[10] abbreviates: dose: 6.25 mg/kg/injection, vehicle: saline with Tween-80.
Where [11] appears, read: dose: 50.0 mg/kg/injection, vehicle: saline with Tween-80.

Values joined by “and” are separate entries in the source; they are usually repeats but may differ in a detail not shown here. Equal entries are not always repeated. Inconclusive results and toxic doses are left out. *1 amine or outer side, *2 acyl side, *3 side chain or, on linkers, in order; H or OH if unused. Where a SMILES comes first, the peptide text is derived from it. Bridges are numbered along the chain shown (N, C = ends). Roman numbers before positions name the chains, in order. [ ]: non-standard residue; d: D form. Actinocin(9to1) = Cc1c2oc3c(C)ccc(C(=O)[*:1])c3nc-2c(C(=O)[*:2])c(N)c1=O; aThr = C[C@H](O)[C@H](N)C(=O)O; NMeV = CN[C@H](C(=O)O)C(C)C; Sar = CNCC(=O)O

Take `CC(=O)O[C@H]1C(=O)[C@@]2(C)C(C(OC(=O)c3ccccc3)[C@]3(O)CC(OC(=O)[C@H](OC(=O)CCC(=O)O)C(NC(=O)c4ccccc4)c4ccccc4)C(C)=C1C3(C)C)C1(OC(C)=O)COC1C[C@@H]2OC(=O)CCC(=O)O` (some centres undefined): the T/C reads like this: (dose: 2.75 mg/kg/injection, vehicle: sodium bicarbonate) 109 % of control; (dose: 2.75 mg/kg/injection, vehicle: water) 120 % of control; (dose: 5.5 mg/kg/injection, vehicle: sodium bicarbonate) 113 % of control; (dose: 5.5 mg/kg/injection, vehicle: water) 114 % of control; (dose: 11.0 mg/kg/injection, vehicle: sodium bicarbonate) 124 % of control; (dose: 22.0 mg/kg/injection, vehicle: sodium bicarbonate) 105 % of control. Besides, the T/C runs as follows: (dose: 22.0 mg/kg/injection, vehicle: water) 109 % of control; (dose: 44.0 mg/kg/injection, vehicle: sodium bicarbonate) 114 % of control; (dose: 44.0 mg/kg/injection, vehicle: water) 166 % of control.

For `Cc1c2oc3c(C)ccc(C(=O)N[C@@H]4C(=O)N[C@H](C(C)C)C(=O)N5CCC[C@H]5C(=O)N(C)CC(=O)N(C)[C@@H](C(C)C)C(=O)O[C@H]4C)c3nc-2c(C(=O)N[C@@H]2C(=O)N[C@H](C(C)C)C(=O)N3CCC[C@H]3C(=O)N(C)CC(=O)N(C)[C@@H](C(C)C)C(=O)O[C@H]2C)c(N)c1=O` (I: [aThr][dV]P[Sar][NMeV] / II: [aThr][dV]P[Sar][NMeV]; ester I:1-I:C, II:1-II:C; linker I:N-II:N via Actinocin(9to1)), the T/C is, setting by setting: (dose: 6.25 micrograms/kg/injection, vehicle: saline + alcohol) 118 % of control; (dose: 6.25 micrograms/kg/injection, vehicle: water) 117 % of control; (dose: 6.3 micrograms/kg/injection, vehicle: saline + alcohol) 108 % of control and 110 % of control; (dose: 12.5 micrograms/kg/injection, vehicle: saline + alcohol) 115 % of control; (dose: 25.0 micrograms/kg/injection, vehicle: water) 151 % of control; (dose: 50.0 micrograms/kg/injection, vehicle: saline + alcohol) 172 % of control. Also, the T/C reads like this: (dose: 50.0 micrograms/kg/injection, vehicle: water) 171 % of control; (dose: 100.0 micrograms/kg/injection, vehicle: saline + alcohol) 160 % of control and 166 % of control; (dose: 100.0 micrograms/kg/injection, vehicle: water) 181 % of control; (dose: 200.0 micrograms/kg/injection, vehicle: saline + alcohol) 159 % of control and 174 % of control.

As to `Cc1cc(NC(=S)SCc2ccc3c(c2)OCO3)ccc1Cl`, the T/C runs as follows: under setting [1], 103 % of control; under setting [2], 112 % of control.

`CCC(C(=O)O)C(=O)O.[NH-]CC1CCCC[N-]1.[Pt+2]`: the T/C is 108 % of control (dose: 6.25 mg/kg/injection, vehicle: saline); 102 % of control (dose: 12.5 mg/kg/injection, vehicle: saline); 113 % of control (dose: 12.5 mg/kg/injection, vehicle: suspension in saline); 101 % of control under setting [3]; 115 % of control (dose: 25.0 mg/kg/injection, vehicle: suspension in saline); 123 % of control (dose: 50.0 mg/kg/injection, vehicle: suspension in saline).

On to `CN=S(=O)(OCCCCCOS(=O)(=NC)c1ccccc1)c1ccccc1` (centres undefined), for which the T/C under setting [4] was 112 % of control and 201 % of control; the T/C under setting [5] is 119 % of control; the T/C under setting [6] was 198 % of control.

For `Cc1nnc(SCC2=C(C(=O)O)N3C(=O)C(NC(=O)Cn4cnnn4)C3SC2)s1` (centres undefined), the T/C reads like this: under setting [7], 91 % of control; under setting [8], 93 % of control; (dose: 200.0 mg/kg/injection, vehicle: saline) 95 % of control.

As to `CO[C@@]12[C@@H]3N[C@@H]3CN1C1=C(C(=O)C(N3CCCC3)=C(C)C1=O)[C@@H]2COC(N)=O`, the T/C is 327 % of control under setting [9] and 100 % of control under setting [10].

Consider `ClC(Cl)(Cl)C1=NCc2nnn(Cc3ccccc3)c2N1`, for which the T/C runs as follows: (dose: 12.5 mg/kg/injection, vehicle: distilled water + Tween-80) 101 % of control; under setting [4], 105 % of control; (dose: 25.0 mg/kg/injection, vehicle: distilled water + Tween-80) 96 % of control; under setting [5], 110 % of control; (dose: 50.0 mg/kg/injection, vehicle: distilled water + Tween-80) 93 % of control; under setting [11], 108 % of control. Moreover, the T/C by setting is: (dose: 100.0 mg/kg/injection, vehicle: distilled water + Tween-80) 91 % of control; under setting [6], 105 % of control; (dose: 200.0 mg/kg/injection, vehicle: distilled water + Tween-80) 101 % of control; (dose: 200.0 mg/kg/injection, vehicle: saline with Tween-80) 95 % of control; (dose: 400.0 mg/kg/injection, vehicle: distilled water + Tween-80) 101 % of control; (dose: 400.0 mg/kg/injection, vehicle: saline with Tween-80) 95 % of control.

In the case of `O=C1CNC(=O)N1CN1CCOCC1`, the T/C was 94 % of control under setting [1]; 94 % of control under setting [2]; 115 % of control (dose: 200.0 mg/kg/injection, vehicle: Klucel (hydroxypropylcellulose) (HPC)); 101 % of control (dose: 400.0 mg/kg/injection, vehicle: Klucel (hydroxypropylcellulose) (HPC)).

On to `Nc1nc2nc[nH]c2c(=O)[nH]1`, for which the T/C was 116 % of control under setting [10]; 105 % of control under setting [4]; 104 % of control under setting [5]; 102 % of control under setting [11]; 90 % of control under setting [6].

With `CCCCCCCCCCCCN1C(C)=CS/C1=C\C=C\c1scc(C)[n+]1CCCCCCCCCCCC`, the T/C is 99 % of control and 108 % of control (dose: 0.78 mg/kg/injection, vehicle: saline with Tween-80); 99 % of control and 105 % of control (dose: 1.56 mg/kg/injection, vehicle: saline with Tween-80); 108 % of control under setting [9].

As for `O=C(Nc1ccc(N=C=S)cc1Cl)c1cc(Cl)cc(Cl)c1O`, the T/C (dose: 6.25 mg/kg/injection, vehicle: Klucel (hydroxypropylcellulose) (HPC)) was 107 % of control; the T/C (dose: 12.5 mg/kg/injection, vehicle: Klucel (hydroxypropylcellulose) (HPC)) was 98 % of control; the T/C (dose: 25.0 mg/kg/injection, vehicle: Klucel (hydroxypropylcellulose) (HPC)) is 116 % of control.

Turning to `NS(=O)(=O)c1cc2c(cc1Cl)NC=NS2(=O)=O`, the T/C is, setting by setting: (dose: 37.5 mg/kg/injection, vehicle: Klucel (hydroxypropylcellulose) (HPC)) 94 % of control; (dose: 75.0 mg/kg/injection, vehicle: Klucel (hydroxypropylcellulose) (HPC)) 90 % of control; (dose: 150.0 mg/kg/injection, vehicle: Klucel (hydroxypropylcellulose) (HPC)) 95 % of control; (dose: 300.0 mg/kg/injection, vehicle: Klucel (hydroxypropylcellulose) (HPC)) 88 % of control.

Turning to `CCC1OCCN1C(C)C` (centres undefined), the T/C was 107 % of control under setting [3], 107 % of control under setting [7] and 98 % of control under setting [8].

(Values after PubChem BioAssay AID200 (DTP/NCI, 2004).)
